From patent publication US7560487B2, “Use of (R)—ibuprofen methanesulfonamide and salts thereof in the treatment and prevention of rejection reactions of transplanted organs” (Dompé Pha.r.ma S.p.A., priority 2001, dated 2009)
Where “and” joins values, the source holds several entries; their conditions need not be identical. Equal entries are not always repeated.

How the values were obtained:
IL-8 = details: in vitro; described in WO 00/24710; cited from earlier work
[1] = test system: rats receiving syngeneic kidney transplant; experiment: Plasma creatinine after syngeneic kidney transplant (cold ischemia/reperfusion); assay type: in vivo, Lewis rats; details: for Plasma Creatinine 16 h: 16 h after transplant; for Plasma Creatinine 16 h / Plasma Creatinine 24 h: 15 mg/kg; for Plasma Creatinine 24 h: 24 h after transplant
Description: (§1) Adult male Lewis rats (RT11) (Charles River, Calco Italia S.p.A, Italy) were used. All animals were allowed free access to food and water. The study was performed in a syngeneic kidney transplant model using such rats as donor and graft recipients. Donor animals were anaesthetized with leptofen. The left kidney was prepared by freeing the ureter from the attachments. The renal artery was separated from the renal vein by dissection. The donor kidney and ureter were removed “en bloc” and flushed with Belzer (UW) containing 1000 U/ml of heparin. Then the kidney was placed in an iced Belzer (UW) solution for 4-6 hours (cold ischemia) until transplant. Recipients were prepared by removal of the left kidney. Animal treatment with DF 1681B is summarized below. Kidney grafts were washed with saline solution before transplant. An anastomosis was created between the recipient and the donor renal artery as well as renal vein with end-to-end anastomosis. Vascular clamps were released after 30 minutes (warm ischemia). Donor and recipient ureters were attached end-to-end. The native right kidney was then removed. Animals were placed in individual metabolic cages for measurements of daily urine output as an index of renal function recovery. After 16 and 24 hours, renal function was assessed by measuring plasma creatinine concentration. Twenty-four hours after kidney transplantation, the animals were sacrificed. The kidney graft was removed, cut in slices and put in Dubosq-Brazil solution for the analysis of conventional histology by light microscopy. Moreover, additional kidney fragments were frozen in liquid nitrogen and used for immunohistochemical analysis of inflammatory cell infiltrate (polymorphonuclear cells, MHC class II positive cells).
(§2) Group 1 (n.=3) rats recipients of a kidney graft exposed to 4 hours cold ischemia and treated with the IL-8 inhibitor DF 1681B.
(§3) Group 2 (n.=3) rats recipients of a kidney graft exposed to 4 hours cold ischemia and treated with the vehicle.
(§4) Group 3 (n.=3) rats recipients of a kidney graft exposed to 6 hours cold ischemia and treated with the IL-8 inhibitor DF 1681B.
(§5) Group 4 (n.=3) rats recipients of a kidney graft exposed to 6 hours cold ischemia and treated with the vehicle.
(§6) The recipients were pretreated the day before the experiment (15 mg/kg s.c.). The animals received an intravenous injection of DF 1681B (15 mg/kg) immediately before reperfusion of the transplanted kidney. Additional administration of the compound (15 mg/kg s.c.) was performed 2 hours after transplantation. Control animals were given vehicle at the same time points and using the same administration method as for animals treated with DF 1681B.
(§7) Data were analyzed using the non-parametric Kruskal-Wallis test for multiple comparisons or the Tukey-Cicchetti test.

[2] = test system: rats receiving syngeneic kidney transplant; experiment: Immunohistochemical granulocyte count in transplanted kidney, syngeneic transplant; assay type: in vivo, Lewis rats; set-up: Granulocytes Intravasc.: unit not given here; details: for Granulocytes Inrterstitial / Granulocytes Intraglom / Granulocytes Intravasc. / Granulocytes Periglom. / Granulocytes Perivasc.: 24 h post-transplant
Description: as §1, §2, §3, §4, §5, §6, §7

[3] = test system: rats receiving syngeneic kidney transplant; experiment: MHC II positive interstitial cell count in transplanted kidney, syngeneic transplant; assay type: in vivo, Lewis rats; set-up: MHC II+ interstitial cells: unit not given here
Description: as §1, §2, §3, §4, §5, §6, §7

[4] = test system: rats receiving syngeneic kidney transplant; experiment: Semi-quantitative histological score for renal damage, syngeneic transplant; assay type: in vivo, Lewis rats
Description: as §1, §2, §3, §4, §5, §6, §7

[5] = test system: rats receiving allogeneic kidney transplant; experiment: Plasma creatinine after allogeneic kidney transplant; assay type: in vivo, Brown Norway rats; details: for Plasma Creatinine 16 h / Plasma Creatinine 24 h: allogeneic, 6 h cold ischemia
Description: The following experimental group of animals were considered:
Group 1 (n=9) Brown Norway rats recipients of a kidney graft of Lewis rats exposed to 6 hours cold ischemia and treated with vehicle.
Group 2 (n=5) Brown Norway rats recipients of a kidney graft of Lewis rats exposed to 6 hours cold ischemia and treated with the IL-8 inhibitor DF 1681B.
The recipients were pretreated the day before the experiment (20 mg/kg s.c.). The animal received an intravenous injection of DF 1681B (20 mg/kg) immediately before reperfusion of the transplanted kidney. Additional administration of the compound (20 mg/kg s.c.) was performed 2 hours after transplantation. Control animals were given vehicle at the same time points and using the same administration method as for animals treated with DF 1681B.
as §7

mouse model = experiment: Chemotaxis in vivo in a mouse model
[6] = test system: models of ischemia/reperfusion injury; experiment: PMN infiltration in models of ischemia/reperfusion injury, mice; assay type: in vivo
[7] = test system: models of ischemia/reperfusion injury; experiment: PMN infiltration in models of ischemia/reperfusion injury, rats; assay type: in vivo
[8] = 4 h cold ischemia, group mean ± SD
[9] = 4 h cold ischemia, individual rats, 15 mg/kg s.c./i.v./s.c.
[10] = 6 h cold ischemia, group mean ± SD
[11] = 6 h cold ischemia, individual rats
[12] = 4 h cold ischemia, individual rats, high-power fields (X400)
[13] = 6 h cold ischemia, individual rats, high-power fields (X400)
[14] = 4 h cold ischemia, 24 h after transplantation, individual rats
[15] = 6 h cold ischemia, 24 h after transplantation, individual rats
[16] = individual Brown Norway rats, 20 mg/kg s.c./i.v./s.c.

CC(C)Cc1ccc([C@@H](C)C(=O)NS(C)(=O)=O)cc1 [(R)-ibuprofen methanesulfonamide, R(−)-N-[2-(4-Isobutylphenyl)propionyl]-methanesulfonamide]
Inhibition of the chemotaxis of neutrophils induced by IL-8 (IL-8): selective in vitro inhibitors

CC(C)Cc1ccc([C@@H](C)C(=O)NS(C)(=O)=O)cc1.NCCCC[C@H](N)C(=O)O [DF1681B, R(−)-N-[2-(4-Isobutylphenyl)propionyl]-methanesulfonamide salt of L(+)-lysine]
Plasma Creatinine 16 h [1, 8]: 0.91 ± 0.18° mg/dl
Plasma Creatinine 16 h [1, 9]: 1.09 mg/dL and 0.74 mg/dL and 0.89 mg/dL
Plasma Creatinine 24 h [1, 8]: 0.78 ± 0.19° mg/dl
Plasma Creatinine 24 h [1, 9]: 0.99 mg/dL and 0.64 mg/dL and 0.71 mg/dL
Renal function (plasma creatinine), effect in words ([1]; 4 h ischemic kidneys): protected animals from renal function deterioration
Plasma Creatinine 16 h [1, 10]: 2.23 ± 0.36*Δ mg/dl
Plasma Creatinine 16 h [1, 11]: 2.32 mg/dL and 2.54 mg/dL and 1.84 mg/dL
Plasma Creatinine 24 h [1, 10]: 1.83 ± 0.09 mg/dL
Plasma Creatinine 24 h [1, 11]: 1.89 mg/dL and 1.87 mg/dL and 1.72 mg/dL
Plasma creatinine concentrations, effect in words ([1]; 6 hours ischemia): significantly reduced plasma creatinine concentrations
Granulocytes Inrterstitial [2, 8]: 12.1 ± 3.7
Granulocytes Intraglom [2, 8]: 9.5 ± 3.9
Granulocytes Intravasc. [2, 8]: 3.2 ± 4.3
Granulocytes Periglom. [2, 8]: 5.4 ± 1.5
Granulocytes Perivasc. [2, 8]: 5.4 ± 2.5
Granulocytes Inrterstitial [2, 12]: 9.1 ± 6.4 and 11 ± 4.8 and 16.2 ± 8.3
Granulocytes Intraglom [2, 12]: 7.4 ± 4.7 and 14 ± 15.4 and 7 ± 2.9
Granulocytes Intravasc. [2, 12]: 1.5 ± 2.4 and 0 and 8 ± 5.3
Granulocytes Periglom. [2, 12]: 5.3 ± 4.5 and 4 and 7 ± 8
Granulocytes Perivasc. [2, 12]: 3 ± 0.8 and 8 ± 2.6 and 5.3 ± 4.6
Granulocyte count in the intraglomerular area, effect in words ([2]; 4 hour cold ischemia): numerically but not significantly lowered
PMN infiltrate, effect in words ([2]; 4 hour cold ischemia): decreases the PMN infiltrate
Granulocytes Inrterstitial [2, 10]: 3 ± 1.7 cells per high-power field
Granulocytes Intraglom [2, 10]: 5.5 ± 2 cells per high-power field
Granulocytes Intravasc. [2, 10]: 1.1 ± 1.7
Granulocytes Periglom. [2, 10]: 2.1 ± 1.1
Granulocytes Perivasc. [2, 10]: 4.1 ± 2.9
Granulocytes Inrterstitial [2, 13]: 2.5 ± 4.6 and 4.8 ± 5.6 and 1.6 ± 1.2
Granulocytes Intraglom [2, 13]: 5.0 ± 6.0 and 3.7 ± 3.0 and 7.7 ± 6.5
Granulocytes Intravasc. [2, 13]: 0.2 ± 0.4 and 0 and 3.0 ± 4.0
Granulocytes Periglom. [2, 13]: 1.0 ± 1.8 and 3.2 ± 1.9 and 2.2 ± 1.2
Granulocytes Perivasc. [2, 13]: 1.0 ± 1.3 and 6.8 ± 8.9 and 4.5 ± 4.4
Interstitial inflammatory cells, effect in words ([2]; 6 hour ischemia, p<0.01): significantly lowered
Number of MHC class II cells, effect in words ([3]; 4 and 6 hour ischemia): not affected
MHC II+ interstitial cells [3, 8]: 8.7 ± 3.4
MHC II+ interstitial cells ([3]; 4 h cold ischemia, individual rats, high-power fields (×400)): 5.1 ± 6.2 and 9.1 ± 2 and 11.9 ± 6.3
MHC II+ interstitial cells [3, 10]: 14.4 ± 4.7
MHC II+ interstitial cells ([3]; 6 h cold ischemia, individual rats, high-power fields (×400)): 10.5 ± 4.7 and 13.1 ± 7 and 19.7 ± 3.3
Histological damage Glomerular (score) [4, 14]: 0 score
Histological damage Interstitial (score) [4, 14]: 2.5 score and 2 score (2×)
Histological damage Tubular (score) [4, 14]: 1.5 score and 0.7 score and 0.5 score
Histological damage Glomerular (score) [4, 8]: 0 score
Histological damage Interstitial (score) [4, 8]: 2 ± 0.3 score
Histological damage Tubular (score) [4, 8]: 0.7 ± 0.6 score
Tubular changes, effect in words ([4]; 4 hour ischemia): attenuated but did not normalize tubular changes
Histological damage Glomerular (score) [4, 15]: 0 score
Histological damage Interstitial (score) [4, 15]: 3 score
Histological damage Tubular (score) [4, 15]: 1.7 score (2×) and 1.2 score
Histological damage Glomerular (score) [4, 10]: 0 score
Histological damage Interstitial (score) [4, 10]: 3 score
Histological damage Tubular (score) [4, 10]: 1.5 ± 0.3 score
Focal ischemic changes in the glomeruli, effect in words ([4]; 6 hour ischemia): prevented
Serum creatinine levels, effect in words ([5]; allogeneic transplant, 20 mg/kg, 16 and 24 hours): significant prevention of increased serum creatinine levels
Plasma Creatinine 16 h [5, 16]: 1.05 mg/dL and 1.2 mg/dL and 1 mg/dL and 0.84 mg/dL and 1.01 mg/dL
Plasma Creatinine 24 h [5, 16]: 1.3 mg/dL and 1.39 mg/dL and 0.87 mg/dL and 0.69 mg/dL and 0.85 mg/dL
Plasma Creatinine 16 h ([5]; group mean, 20 mg/kg): 1.02 mg/dL
Plasma Creatinine 24 h ([5]; group mean, 20 mg/kg): 1.02 mg/dL
Inhibition of chemotaxis in vivo (mouse model): inhibit chemotaxis in vivo
Inhibition of PMN infiltration [6]: inhibit PMN infiltration
Inhibition of PMN infiltration [7]: inhibit PMN infiltration
Inhibition of the chemotaxis of neutrophils induced by IL-8 (IL-8): selective in vitro inhibitors
